According to patent US8618151B2, “Inhibitors of HCV NS5A” (Presidio Pharmaceuticals, Inc., priority 2008, dated 2013):

Test system: HCV genotype 1b replicon
Assay: HCV replicon assay (1b_Huh-Luc/Neo-ET cell line, luciferase readout)
Type: cell-based
Settings: Hepatitis C virus, Huh-7, 72 h, read-out: Inhibition of HCV genotype 1b
Method in brief: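 1b_Huh-Luc/Neo-ET Huh 7 cells carrying a bicistronic genotype 1b replicon; compounds added in triplicate the day after plating, 72 h incubation, then Bright-Glo luciferase read-out. Signal expressed as % of control; EC50 from curve fit, repeated several times.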

Structure (SMILES) | EC50
COC(=O)N[C@H](C(=O)N1CCC[C@H]1c1ncc(-c2ccc(-c3nc4ccc(-c5cnc([C@@H]6CCCN6C(=O)[C@@H](NC(=O)OC)C(C)C)[nH]5)cc4s3)cc2)[nH]1)C(C)C [compound 229] | < 1 nM
COC(=O)N[C@@H](C(=O)N1CCC[C@H]1c1ncc(-c2ccc(-c3nc4ccc(-c5cnc([C@@H]6CCCN6C(=O)[C@H](NC(=O)OC)c6ccccc6)[nH]5)cc4s3)cc2)[nH]1)c1ccccc1 [compound 230] | < 1 nM
COC(=O)N[C@H](C(=O)N1CCC[C@H]1c1ncc(-c2ccc(-c3nc4ccc(-c5cnc([C@@H]6CCCN6C(=O)[C@@H](NC(=O)OC)C(C)C)[nH]5)cc4n3C)cc2)[nH]1)C(C)C [compound 231] | < 1 nM
COC(=O)N[C@H](C(=O)N1CCC[C@H]1c1ncc(-c2ccc(-c3nc4cc(-c5cnc([C@@H]6CCCN6C(=O)[C@@H](NC(=O)OC)C(C)C)[nH]5)ccc4n3C)cc2)[nH]1)C(C)C [compound 232] | < 1 nM
COC(=O)N[C@@H](C(=O)N1CCC[C@H]1c1ncc(-c2ccc(-c3nc4cc(-c5cnc([C@@H]6CCCN6C(=O)[C@H](NC(=O)OC)c6ccccc6)[nH]5)ccc4n3C)cc2)[nH]1)c1ccccc1 [compound 233] | < 1 nM
COC(=O)N[C@H](C(=O)N1CCC[C@H]1c1ncc(-c2ccc(-c3nc4ccc(-c5cnc([C@@H]6CCCN6C(=O)[C@@H](NC(=O)OC)C(C)C)[nH]5)cc4o3)cc2)[nH]1)C(C)C [compound 234] | < 1 nM
COC(=O)N[C@@H](C(=O)N1CCC[C@H]1c1ncc(-c2ccc(-c3nc4ccc(-c5cnc([C@@H]6CCCN6C(=O)[C@H](NC(=O)OC)c6ccccc6)[nH]5)cc4o3)cc2)[nH]1)c1ccccc1 [compound 235] | < 1 nM
COC(=O)N[C@H](C(=O)N1CCC[C@H]1c1ncc(-c2ccc(-c3nc4cc(-c5cnc([C@@H]6CCCN6C(=O)[C@@H](NC(=O)OC)C(C)C)[nH]5)ccc4o3)cc2)[nH]1)C(C)C [compound 236] | < 1 nM
COC(=O)N[C@@H](C(=O)N1CCC[C@H]1c1ncc(-c2ccc(-c3nc4cc(-c5cnc([C@@H]6CCCN6C(=O)[C@H](NC(=O)OC)c6ccccc6)[nH]5)ccc4o3)cc2)[nH]1)c1ccccc1 [compound 237] | < 1 nM
COC(=O)N[C@H](C(=O)N1CCC[C@H]1c1ncc(-c2ccc(-c3nc4cc(-c5cnc([C@@H]6CCCN6C(=O)[C@@H](NC(=O)OC)[C@@H](C)OC)[nH]5)ccc4o3)cc2)[nH]1)[C@@H](C)OC [compound 238] | < 1 nM
COC(=O)N[C@H](C(=O)N1CCC[C@H]1c1ncc(-c2ccc(-c3nc4cc(-c5cnc([C@@H]6CCCN6C(=O)[C@@H](NC(=O)OC)C6CC6)[nH]5)ccc4o3)cc2)[nH]1)C1CC1 [compound 239] | < 1 nM
COC(=O)N[C@H](C(=O)N1CCC[C@H]1c1ncc(-c2ccc(-c3nc4cc(-c5cnc([C@@H]6CCCN6C(=O)[C@@H](NC(=O)OC)C(C)C)[nH]5)ccc4s3)cc2)[nH]1)C(C)C [compound 240] | < 1 nM
COC(=O)N[C@H](C(=O)N1CCC[C@H]1c1ncc(-c2ccc(-c3nc4ccc(-c5cnc([C@@H]6CCCN6C(=O)[C@H](NC(=O)OC)c6ccccc6)[nH]5)cc4s3)cc2)[nH]1)C(C)C [compound 241] | < 1 nM
COC(=O)N[C@H](C(=O)N1CCC[C@H]1c1ncc(-c2ccc(-c3nc4ccc(-c5cnc([C@@H]6CCCN6C(=O)[C@H](NC(=O)OC(C)(C)C)c6ccccc6)[nH]5)cc4s3)cc2)[nH]1)C(C)C [compound 242] | < 1 nM
COC(=O)N[C@H](C(=O)N1CCCC[C@H]1c1ncc(-c2ccc(-c3nc4ccc(-c5cnc([C@@H]6CCCCN6C(=O)[C@@H](NC(=O)OC)C(C)C)[nH]5)cc4s3)cc2)[nH]1)C(C)C [compound 243] | < 1 nM
CCNC(=O)N[C@@H](C(=O)N1CCC[C@H]1c1ncc(-c2ccc3nc(-c4ccc(-c5cnc([C@@H]6CCCN6C(=O)[C@@H](NC(=O)OC)C(C)C)[nH]5)cc4)sc3c2)[nH]1)c1ccccc1 [compound 244] | < 1 nM
CNC(=O)N[C@@H](C(=O)N1CCC[C@H]1c1ncc(-c2ccc3nc(-c4ccc(-c5cnc([C@@H]6CCCN6C(=O)[C@@H](NC(=O)OC)C(C)C)[nH]5)cc4)sc3c2)[nH]1)c1ccccc1 [compound 245] | < 1 nM
COC(=O)N[C@H](C(=O)N1CCC[C@H]1c1ncc(-c2ccc(-c3nc4ccc(-c5cnc([C@@H]6CCCN6C(=O)OCc6ccccc6)[nH]5)cc4s3)cc2)[nH]1)C(C)C [compound 246] | < 1 nM
COC(=O)N[C@H](C(=O)N1CCC[C@H]1c1ncc(-c2ccc(-c3nc4ccc(-c5cnc([C@@H]6CCCN6C(=O)[C@H](NC(=O)OC(C)(C)C)c6ccccc6)[nH]5)cc4o3)cc2)[nH]1)C(C)C [compound 247] | < 1 nM
COC(=O)N[C@@H](C(=O)N1CCCC[C@H]1c1ncc(-c2ccc(-c3nc4ccc(-c5cnc([C@@H]6CCCCN6C(=O)[C@H](NC(=O)OC)c6ccccc6)[nH]5)cc4s3)cc2)[nH]1)c1ccccc1 [compound 248] | < 1 nM
COC(=O)N[C@H](C(=O)N1CCC[C@H]1c1ncc(-c2ccc(-c3nc4ccc(-c5cnc([C@@H]6CCCN6C(=O)[C@H](NC(=O)OC)c6ccccc6)[nH]5)cc4o3)cc2)[nH]1)C(C)C [compound 249] | < 1 nM

Structure (SMILES) | EC50
CC(C)(C)OC(=O)N1CCCC1c1ncc(-c2ccc(-c3nc4cc(-c5cnc([C@@H]6CCCN6C(=O)OCc6ccccc6)[nH]5)ccc4s3)cc2)[nH]1 (stereo partly drawn) [compound 250] | 10 to 999 nM
CNC(=O)N[C@@H](C(=O)N1CCC[C@H]1c1ncc(-c2ccc3nc(-c4ccc(-c5cnc([C@@H]6CCCN6C(=O)[C@@H](NC(=O)OC)C(C)C)[nH]5)cc4)oc3c2)[nH]1)c1ccccc1 [compound 251] | < 1 nM
CCNC(=O)N[C@@H](C(=O)N1CCC[C@H]1c1ncc(-c2ccc3nc(-c4ccc(-c5cnc([C@@H]6CCCN6C(=O)[C@@H](NC(=O)OC)C(C)C)[nH]5)cc4)oc3c2)[nH]1)c1ccccc1 [compound 252] | < 1 nM
COC(=O)N[C@H](C(=O)N1CCC[C@H]1c1ncc(-c2ccc(-c3nc4ccc(-c5cnc([C@@H]6CCCN6C(=O)[C@@H](NC(=O)OC)[C@@H](C)OC)[nH]5)cc4o3)cc2)[nH]1)C(C)C [compound 253] | < 1 nM
COC(=O)N[C@H](C(=O)N1CCC[C@H]1c1ncc(-c2ccc3nc(-c4ccc(-c5cnc([C@@H]6CCCN6C(=O)[C@H](NC(=O)OC(C)(C)C)c6ccccc6)[nH]5)cc4)oc3c2)[nH]1)C(C)C [compound 254] | < 1 nM
COC(=O)N[C@H](C(=O)N1CCC[C@H]1c1ncc(-c2ccc3nc(-c4ccc(-c5cnc([C@@H]6CCCN6C(=O)[C@H](NC(=O)OC)c6ccccc6)[nH]5)cc4)oc3c2)[nH]1)C(C)C [compound 255] | < 1 nM
CNC(=O)N[C@@H](C(=O)N1CCC[C@H]1c1ncc(-c2ccc(-c3nc4ccc(-c5cnc([C@@H]6CCCN6C(=O)[C@@H](NC(=O)OC)C(C)C)[nH]5)cc4o3)cc2)[nH]1)c1ccccc1 [compound 256] | < 1 nM
CCNC(=O)N[C@@H](C(=O)N1CCC[C@H]1c1ncc(-c2ccc(-c3nc4ccc(-c5cnc([C@@H]6CCCN6C(=O)[C@@H](NC(=O)OC)C(C)C)[nH]5)cc4o3)cc2)[nH]1)c1ccccc1 [compound 257] | < 1 nM
COC(=O)N[C@H](C(=O)N1CCC[C@H]1c1ncc(-c2ccc(-c3ccc4nc(-c5cnc([C@@H]6CCCN6C(=O)[C@@H](NC(=O)OC)C(C)C)[nH]5)sc4c3)cc2)[nH]1)C(C)C [compound 258] | < 1 nM
COC(=O)N[C@H](C(=O)N1CCC[C@H]1c1ncc(-c2ccc3oc(-c4ccc(-c5cnc([C@@H]6CCCN6C(=O)[C@@H](NC(=O)OC)C6CCOCC6)[nH]5)cc4)nc3c2)[nH]1)C(C)C [compound 259] | < 1 nM
COC(=O)N[C@H](C(=O)N1CCC[C@H]1c1ncc(-c2ccc3oc(-c4ccc(-c5cnc([C@@H]6CCCN6C(=O)[C@H](NC(=O)OC)c6ccccc6)[nH]5)cc4)nc3c2)[nH]1)C(C)C [compound 260] | < 1 nM
COC(=O)N[C@H](C(=O)N1CCC[C@H]1c1ncc(-c2ccc3ccc(C45CCC(c6cnc([C@@H]7CCCN7C(=O)[C@@H](NC(=O)OC)C(C)C)[nH]6)(CC4)CC5)cc3c2)[nH]1)C(C)C [compound 261] | 1 to 9.9 nM
COC(=O)N[C@H](C(=O)N1CCC[C@H]1c1nc(-c2ccc3nc(C45CCC(c6cnc([C@@H]7CCCN7C(=O)[C@@H](NC(=O)OC)C(C)C)[nH]6)(CC4)CC5)ccc3c2)c[nH]1)C(C)C [compound 262] | < 1 nM
COC(=O)N[C@@H](C(=O)N1CCC[C@H]1c1nc(-c2ccc3nc(C45CCC(c6cnc([C@@H]7CCCN7C(=O)[C@H](NC(=O)OC)c7ccccc7)[nH]6)(CC4)CC5)ccc3c2)c[nH]1)c1ccccc1 [compound 263] | < 1 nM
CN(C)[C@@H](C(=O)N1CCC[C@H]1c1nc(-c2ccc3nc(C45CCC(c6cnc([C@@H]7CCCN7C(=O)[C@@H](c7ccccc7)N(C)C)[nH]6)(CC4)CC5)ccc3c2)c[nH]1)c1ccccc1 [compound 264] | 1 to 9.9 nM
COC(=O)N[C@H](C(=O)N1CCC[C@H]1c1nc(-c2ccc3nc(C45CCC(c6cnc([C@@H]7CCCN7C(=O)[C@@H](NC(=O)OC)C7CC7)[nH]6)(CC4)CC5)ccc3c2)c[nH]1)C1CC1 [compound 265] | < 1 nM
COC(=O)N[C@@H](C)C(=O)N1CCC[C@H]1c1nc(-c2ccc3nc(C45CCC(c6cnc([C@@H]7CCCN7C(=O)[C@H](C)NC(=O)OC)[nH]6)(CC4)CC5)ccc3c2)c[nH]1 [compound 266] | < 1 nM
c1cc2nc(C34CCC(c5cnc([C@@H]6CCCN6)[nH]5)(CC3)CC4)ccc2cc1-c1c[nH]c([C@@H]2CCCN2)n1 [compound 267] | > 1000 nM
CC(C)(C)OC(=O)N1CCCC1c1ncc(C23CCC(c4ccc5cc(-c6c[nH]c([C@@H]7CCCN7C(=O)OC(C)(C)C)n6)ccc5n4)(CC2)CC3)[nH]1 (stereo partly drawn) [compound 268] | 10 to 999 nM
COC(=O)N[C@H](C(=O)N1CCC[C@H]1c1nc(-c2ccc3c(c2)CCN(c2c(F)cc(-c4cnc([C@@H]5CCCN5C(=O)[C@@H](NC(=O)OC)C(C)C)[nH]4)cc2F)C3)c[nH]1)C(C)C [compound 269] | < 1 nM
COC(=O)N[C@@H](C(=O)N1CCC[C@H]1c1nc(-c2ccc3c(c2)CCN(c2c(F)cc(-c4cnc([C@@H]5CCCN5C(=O)[C@H](NC(=O)OC)c5ccccc5)[nH]4)cc2F)C3)c[nH]1)c1ccccc1 [compound 270] | < 1 nM
